Measurements taken from ChEMBL document CHEMBL3991601, “The target landscape of clinical kinase drugs” (Science, 2017).
Activity calls are given as the source filed them. Rule as the data show it, for most assays here: actives have a measured Kd and inactives only a lower limit.

Columns and labels:
[1] = molecular target: Glycogen synthase kinase-3 beta (Homo sapiens, UniProt P49841)
[2] = molecular target: Eukaryotic translation initiation factor 2-alpha kinase 1 (Homo sapiens, UniProt Q9BQI3)
Eukaryotic translation initiation factor 2-alpha kinase 1, sequence (Q9BQI3 whole entry): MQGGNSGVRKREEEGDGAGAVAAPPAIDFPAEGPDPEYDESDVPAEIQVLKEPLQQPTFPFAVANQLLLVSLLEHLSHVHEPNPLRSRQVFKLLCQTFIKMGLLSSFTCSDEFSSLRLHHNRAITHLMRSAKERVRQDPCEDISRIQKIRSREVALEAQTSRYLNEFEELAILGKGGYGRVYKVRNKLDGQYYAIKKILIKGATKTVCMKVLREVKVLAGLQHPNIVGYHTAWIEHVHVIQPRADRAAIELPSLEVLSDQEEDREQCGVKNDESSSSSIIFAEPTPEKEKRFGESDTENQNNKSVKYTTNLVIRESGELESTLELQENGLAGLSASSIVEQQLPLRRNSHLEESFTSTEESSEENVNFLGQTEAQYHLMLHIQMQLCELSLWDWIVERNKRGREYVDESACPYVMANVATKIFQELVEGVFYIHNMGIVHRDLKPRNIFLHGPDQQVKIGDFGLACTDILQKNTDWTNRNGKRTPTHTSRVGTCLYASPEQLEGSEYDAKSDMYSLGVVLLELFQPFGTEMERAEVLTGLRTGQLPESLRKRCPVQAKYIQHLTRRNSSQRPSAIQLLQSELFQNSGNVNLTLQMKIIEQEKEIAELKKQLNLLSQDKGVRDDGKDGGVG

[3] = molecular target: T1, Serine/threonine-protein kinase TAO3 (Homo sapiens, UniProt Q9H2K8)
T1 sequence (Q9H2K8 whole entry): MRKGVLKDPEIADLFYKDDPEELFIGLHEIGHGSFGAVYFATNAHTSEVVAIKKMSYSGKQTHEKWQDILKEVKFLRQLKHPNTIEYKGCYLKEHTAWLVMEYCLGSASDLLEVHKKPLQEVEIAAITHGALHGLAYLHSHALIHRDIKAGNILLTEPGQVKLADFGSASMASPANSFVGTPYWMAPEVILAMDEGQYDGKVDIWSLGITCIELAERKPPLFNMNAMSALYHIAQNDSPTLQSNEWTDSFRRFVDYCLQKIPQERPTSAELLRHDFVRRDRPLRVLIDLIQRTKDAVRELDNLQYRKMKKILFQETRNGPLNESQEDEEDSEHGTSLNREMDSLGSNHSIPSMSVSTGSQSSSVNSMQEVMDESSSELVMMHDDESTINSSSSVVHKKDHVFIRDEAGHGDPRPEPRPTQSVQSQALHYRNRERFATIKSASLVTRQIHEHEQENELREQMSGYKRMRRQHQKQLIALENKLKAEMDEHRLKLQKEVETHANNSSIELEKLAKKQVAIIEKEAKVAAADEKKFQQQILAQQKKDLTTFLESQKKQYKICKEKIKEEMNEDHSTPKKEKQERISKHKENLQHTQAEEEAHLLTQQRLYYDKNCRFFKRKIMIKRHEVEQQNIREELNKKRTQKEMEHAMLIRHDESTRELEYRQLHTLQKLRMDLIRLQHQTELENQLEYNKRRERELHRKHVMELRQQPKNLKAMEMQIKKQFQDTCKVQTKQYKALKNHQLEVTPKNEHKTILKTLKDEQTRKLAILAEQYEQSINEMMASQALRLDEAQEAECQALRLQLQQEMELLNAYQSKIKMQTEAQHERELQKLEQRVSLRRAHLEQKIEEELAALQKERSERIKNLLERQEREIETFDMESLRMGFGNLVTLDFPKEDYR

[4] = molecular target: T2, ATP-dependent 6-phosphofructokinase, platelet type (Homo sapiens, UniProt Q01813)
T2 sequence (Q01813 whole entry): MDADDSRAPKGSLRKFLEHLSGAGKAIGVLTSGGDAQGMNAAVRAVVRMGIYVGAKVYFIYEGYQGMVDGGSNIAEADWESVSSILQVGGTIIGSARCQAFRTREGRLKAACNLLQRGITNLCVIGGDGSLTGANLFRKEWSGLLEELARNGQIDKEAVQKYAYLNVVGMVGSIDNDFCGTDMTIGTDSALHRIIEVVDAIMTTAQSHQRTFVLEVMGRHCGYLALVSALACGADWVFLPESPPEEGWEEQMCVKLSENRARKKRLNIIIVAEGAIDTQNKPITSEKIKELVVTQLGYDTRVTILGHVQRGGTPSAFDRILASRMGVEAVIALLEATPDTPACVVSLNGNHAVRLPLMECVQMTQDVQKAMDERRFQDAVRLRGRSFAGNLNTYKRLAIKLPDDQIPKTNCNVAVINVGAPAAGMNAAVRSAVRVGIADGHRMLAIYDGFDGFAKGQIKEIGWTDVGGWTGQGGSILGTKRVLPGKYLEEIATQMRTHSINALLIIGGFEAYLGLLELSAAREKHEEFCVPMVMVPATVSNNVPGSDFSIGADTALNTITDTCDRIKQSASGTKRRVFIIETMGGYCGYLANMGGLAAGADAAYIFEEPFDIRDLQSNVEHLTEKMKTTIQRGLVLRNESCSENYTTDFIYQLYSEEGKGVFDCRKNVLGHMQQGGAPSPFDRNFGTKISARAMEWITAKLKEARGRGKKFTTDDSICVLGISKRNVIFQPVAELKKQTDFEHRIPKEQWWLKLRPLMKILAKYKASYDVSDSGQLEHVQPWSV

[5] = molecular target: T3, Bifunctional phosphoribosylaminoimidazole carboxylase/phosphoribosylaminoimidazole succinocarboxamide synthetase (Homo sapiens, UniProt P22234)
T3 sequence (P22234 whole entry): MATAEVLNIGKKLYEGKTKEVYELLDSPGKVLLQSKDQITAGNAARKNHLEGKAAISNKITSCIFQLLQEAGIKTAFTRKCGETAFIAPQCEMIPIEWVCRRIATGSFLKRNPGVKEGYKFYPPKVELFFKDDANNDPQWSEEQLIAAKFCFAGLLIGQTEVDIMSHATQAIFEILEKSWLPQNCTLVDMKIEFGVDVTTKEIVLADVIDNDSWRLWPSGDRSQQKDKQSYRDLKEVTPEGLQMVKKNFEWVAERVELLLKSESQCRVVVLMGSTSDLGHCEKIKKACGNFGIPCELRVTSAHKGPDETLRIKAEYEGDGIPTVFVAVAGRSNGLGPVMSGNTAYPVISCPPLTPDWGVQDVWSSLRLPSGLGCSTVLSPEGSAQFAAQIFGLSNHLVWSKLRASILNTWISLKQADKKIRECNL

[6] = molecular target: Mitogen-activated protein kinase kinase kinase kinase 1 (Homo sapiens, UniProt Q92918)
Mitogen-activated protein kinase kinase kinase kinase 1, sequence (Q92918 whole entry): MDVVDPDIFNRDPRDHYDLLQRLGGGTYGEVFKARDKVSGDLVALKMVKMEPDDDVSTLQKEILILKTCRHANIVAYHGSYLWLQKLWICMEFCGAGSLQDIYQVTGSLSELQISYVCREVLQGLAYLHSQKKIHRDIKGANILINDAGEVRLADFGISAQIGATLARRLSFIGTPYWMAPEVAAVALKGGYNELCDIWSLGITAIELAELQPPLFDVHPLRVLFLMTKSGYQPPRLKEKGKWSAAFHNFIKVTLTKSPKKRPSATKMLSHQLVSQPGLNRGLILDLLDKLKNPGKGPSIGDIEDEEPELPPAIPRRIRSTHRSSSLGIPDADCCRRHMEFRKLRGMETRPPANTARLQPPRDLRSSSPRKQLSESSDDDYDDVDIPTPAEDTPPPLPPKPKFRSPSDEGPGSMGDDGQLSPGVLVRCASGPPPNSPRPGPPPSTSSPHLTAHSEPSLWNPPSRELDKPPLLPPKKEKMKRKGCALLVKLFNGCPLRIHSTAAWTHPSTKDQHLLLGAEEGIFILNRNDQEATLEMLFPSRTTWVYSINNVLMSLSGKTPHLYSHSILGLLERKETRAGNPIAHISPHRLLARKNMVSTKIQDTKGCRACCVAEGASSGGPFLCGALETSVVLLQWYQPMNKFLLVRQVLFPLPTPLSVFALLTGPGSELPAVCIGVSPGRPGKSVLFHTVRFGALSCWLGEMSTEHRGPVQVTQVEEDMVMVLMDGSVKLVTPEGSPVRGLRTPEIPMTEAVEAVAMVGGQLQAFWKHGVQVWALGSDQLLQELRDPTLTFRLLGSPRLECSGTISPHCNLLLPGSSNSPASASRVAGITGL

[7] = molecular target: T4, Interleukin-1 receptor-associated kinase 3 (Homo sapiens, UniProt Q9Y616)
T4 sequence (Q9Y616 whole entry): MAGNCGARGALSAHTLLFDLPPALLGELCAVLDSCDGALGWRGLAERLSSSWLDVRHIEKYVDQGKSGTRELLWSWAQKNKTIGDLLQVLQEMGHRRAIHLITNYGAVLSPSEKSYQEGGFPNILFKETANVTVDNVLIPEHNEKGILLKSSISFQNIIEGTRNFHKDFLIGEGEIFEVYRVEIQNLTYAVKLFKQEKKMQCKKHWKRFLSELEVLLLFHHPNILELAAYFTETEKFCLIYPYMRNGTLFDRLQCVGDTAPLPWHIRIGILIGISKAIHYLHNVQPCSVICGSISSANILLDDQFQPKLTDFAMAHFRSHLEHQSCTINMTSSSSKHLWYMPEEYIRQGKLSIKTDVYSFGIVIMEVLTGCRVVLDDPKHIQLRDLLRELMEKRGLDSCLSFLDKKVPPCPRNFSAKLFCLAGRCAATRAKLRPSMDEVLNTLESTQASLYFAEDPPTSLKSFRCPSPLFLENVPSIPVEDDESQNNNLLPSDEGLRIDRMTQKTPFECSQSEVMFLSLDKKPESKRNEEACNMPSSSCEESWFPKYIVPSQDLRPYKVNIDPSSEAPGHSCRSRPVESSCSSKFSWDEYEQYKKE

[8] = molecular target: cAMP-dependent protein kinase catalytic subunit gamma (Homo sapiens, UniProt P22612)
cAMP-dependent protein kinase catalytic subunit gamma, sequence (P22612 whole entry): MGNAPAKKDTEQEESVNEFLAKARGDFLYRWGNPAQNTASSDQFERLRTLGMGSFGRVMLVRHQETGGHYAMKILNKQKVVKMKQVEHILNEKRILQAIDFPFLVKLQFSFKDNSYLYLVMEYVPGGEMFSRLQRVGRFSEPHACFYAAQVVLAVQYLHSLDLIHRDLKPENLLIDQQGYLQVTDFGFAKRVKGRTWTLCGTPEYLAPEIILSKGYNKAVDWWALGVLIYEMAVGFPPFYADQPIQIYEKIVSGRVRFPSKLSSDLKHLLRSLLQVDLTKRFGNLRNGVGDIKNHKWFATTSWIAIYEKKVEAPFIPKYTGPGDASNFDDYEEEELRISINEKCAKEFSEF
Also: in the data inactive means no Kd found up to 30 µM.

Glycogen synthase kinase-3 beta, sequence (P49841 whole entry): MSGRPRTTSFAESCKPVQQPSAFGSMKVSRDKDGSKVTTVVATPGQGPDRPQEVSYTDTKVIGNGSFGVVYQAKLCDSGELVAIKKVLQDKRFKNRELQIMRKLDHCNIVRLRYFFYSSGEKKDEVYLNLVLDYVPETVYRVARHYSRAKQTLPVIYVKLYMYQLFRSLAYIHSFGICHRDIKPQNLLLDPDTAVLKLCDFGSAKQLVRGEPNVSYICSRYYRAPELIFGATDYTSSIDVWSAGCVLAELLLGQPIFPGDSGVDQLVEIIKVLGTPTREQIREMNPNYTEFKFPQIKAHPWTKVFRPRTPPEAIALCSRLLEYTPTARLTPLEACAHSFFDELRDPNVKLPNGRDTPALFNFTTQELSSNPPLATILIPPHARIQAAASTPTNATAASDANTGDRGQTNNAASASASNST

| SMILES | Kd [1] | Kd [2] | Kd [3] | Kd [4] | Kd [5] | Kd [6] | Kd [7] | Kd [8] |
| --- | --- | --- | --- | --- | --- | --- | --- | --- |
| CCn1cc(-c2ccnc3[nH]c(-c4cccc(CN(C)C)c4)cc23)c(-c2ccc(NC(=O)N(C)C)cc2)n1 [GSK-1070916] | > 30 µM (inactive) | > 30 µM (inactive) | > 30 µM (inactive) | > 30 µM (inactive) | > 30 µM (inactive) | > 30 µM (inactive) | > 30 µM (inactive) |  |
| Cc1[nH]c(/C=C2\C(=O)Nc3ccccc32)c(C)c1CCC(=O)O [ORANTINIB] |  | > 30 µM (inactive) | > 30 µM (inactive) | > 30 µM (inactive) | > 30 µM (inactive) | 2.02 µM (active) | > 30 µM (inactive) |  |
| NC(=O)c1c(OCc2c(F)cc(Br)cc2F)nsc1NC(=O)NCCCCN1CCCC1 [OSI-632] |  | 3.57 µM (active) |  | > 30 µM (inactive) | > 30 µM (inactive) | > 30 µM (inactive) | > 30 µM (inactive) | > 30 µM (inactive) |
| CCOc1cc2ncc(C#N)c(Nc3ccc(F)c(Cl)c3)c2cc1NC(=O)/C=C/CN(C)C [PELITINIB] | > 30 µM (inactive) | > 30 µM (inactive) | > 30 µM (inactive) | > 30 µM (inactive) | > 30 µM (inactive) | 1.1 µM (active) | > 30 µM (inactive) |  |
| CC(=O)NCC(=O)N1[C@@H]2CC[C@H]1c1ccc(Nc3ncc(C(F)(F)F)c(NC4CCC4)n3)cc12 [PF-03814735] |  | > 30 µM (inactive) | 2.4 µM (active) | > 30 µM (inactive) | > 30 µM (inactive) | > 30 µM (inactive) | > 30 µM (inactive) | > 30 µM (inactive) |
| O=C(NOCCO)c1cc(CN2OCCCC2=O)c(F)c(F)c1Nc1ccc(I)cc1F [RO-4987655] |  |  |  | > 30 µM (inactive) | > 30 µM (inactive) |  |  | > 30 µM (inactive) |
| N#CC[C@H](C1CCCC1)n1cc(-c2ncnc3[nH]ccc23)cn1 [RUXOLITINIB] |  |  |  | > 30 µM (inactive) | > 30 µM (inactive) |  |  | > 30 µM (inactive) |
| CO[C@H]1C[C@@H]2CC[C@@H](C)[C@@](O)(O2)C(=O)C(=O)N2CCCC[C@H]2C(=O)O[C@H]([C@H](C)C[C@@H]2CC[C@@H](O)[C@H](OC)C2)CC(=O)[C@H](C)/C=C(\C)[C@@H](O)[C@@H](OC)C(=O)[C@H](C)C[C@H](C)/C=C/C=C/C=C/1C [SIROLIMUS] | > 30 µM (inactive) | > 30 µM (inactive) | > 30 µM (inactive) | > 30 µM (inactive) | > 30 µM (inactive) | > 30 µM (inactive) | > 30 µM (inactive) |  |
| O=C(Cc1ccc(-c2ccc(OCCN3CCOCC3)cc2)cn1)NCc1ccccc1 [TIRBANIBULIN] | > 30 µM (inactive) | > 30 µM (inactive) | > 30 µM (inactive) | > 30 µM (inactive) | > 30 µM (inactive) | > 30 µM (inactive) | > 30 µM (inactive) |  |
| O=C1NC(=O)[C@@H](c2cn3c4c(cccc24)CCC3)[C@@H]1c1c[nH]c2ccccc12 [TIVANTINIB] | > 30 µM (inactive) | > 30 µM (inactive) | > 30 µM (inactive) | > 30 µM (inactive) | > 30 µM (inactive) | > 30 µM (inactive) | > 30 µM (inactive) |  |
